Experiments:
Assay in all cases: relative viability (nuclei count vs DMSO), 5 days (fraction); higher = more cells survive
Bemcentinib + Pemetrexed = compound: Nc1nc(Nc2ccc3c(c2)CC[C@@H](N2CCCC2)CC3)nn1-c1cc2c(nn1)-c1ccccc1CCC2 [Bemcentinib] + Nc1nc2[nH]cc(CCc3ccc(C(=O)N[C@@H](CCC(=O)O)C(=O)O)cc3)c2c(=O)[nH]1 [Pemetrexed] (partner 0.2 µM)
Summary of the method: (§1)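 Relative viability was taken as the ratio of nuclei in treated wells to nuclei in vehicle wells. Lung cancer cell lines in 1536-well plates received compounds by pin tool one day after seeding, either one drug alone or a fixed anchor-drug dose plus five library-drug doses (not always all listed) in √10 steps. Nuclei were counted on 4× images after 5 days of treatment, and values are medians of duplicate plates.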

Axitinib + Pictilisib = compound: CNC(=O)c1ccccc1Sc1ccc2c(/C=C/c3ccccn3)n[nH]c2c1 [Axitinib] + CS(=O)(=O)N1CCN(Cc2cc3nc(-c4cccc5[nH]ncc45)nc(N4CCOCC4)c3s2)CC1 [Pictilisib] (partner 1 µM)
Summary of the method: as §1

[1] = compound: Nc1nc(Nc2ccc3c(c2)CC[C@@H](N2CCCC2)CC3)nn1-c1cc2c(nn1)-c1ccccc1CCC2 [Bemcentinib] + CC(=O)c1c(C)c2cnc(Nc3ccc(N4CCNCC4)cn3)nc2n(C2CCCC2)c1=O [Palbociclib] (partner 0.5 µM)
Summary of the method: as §1

Axitinib + Linsitinib = compound: CNC(=O)c1ccccc1Sc1ccc2c(/C=C/c3ccccn3)n[nH]c2c1 [Axitinib] + C[C@]1(O)C[C@@H](c2nc(-c3ccc4ccc(-c5ccccc5)nc4c3)c3c(N)nccn32)C1 [Linsitinib] (partner 1 µM)
Summary of the method: as §1

| Cell Line | relative viability (Bemcentinib + Pemetrexed; first compound 0.04 µM) | relative viability (Bemcentinib + Pemetrexed; first compound 0.1265 µM) | relative viability (Bemcentinib + Pemetrexed; first compound 0.4 µM) | relative viability (Bemcentinib + Pemetrexed; first compound 1.265 µM) | relative viability (Bemcentinib + Pemetrexed; first compound 4 µM) | relative viability (Axitinib + Pictilisib; first compound 0.005 µM) | relative viability (Axitinib + Pictilisib; first compound 0.01581 µM) | relative viability (Axitinib + Pictilisib; first compound 0.05 µM) | relative viability (Axitinib + Pictilisib; first compound 0.1581 µM) | relative viability (Axitinib + Pictilisib; first compound 0.5 µM) | relative viability ([1]; first compound 0.04 µM) | relative viability ([1]; first compound 0.1265 µM) | relative viability ([1]; first compound 0.4 µM) | relative viability ([1]; first compound 1.265 µM) | relative viability ([1]; first compound 4 µM) | relative viability (Axitinib + Linsitinib; first compound 0.005 µM) | relative viability (Axitinib + Linsitinib; first compound 0.01581 µM) | relative viability (Axitinib + Linsitinib; first compound 0.05 µM) | relative viability (Axitinib + Linsitinib; first compound 0.1581 µM) | relative viability (Axitinib + Linsitinib; first compound 0.5 µM) |
| --- | --- | --- | --- | --- | --- | --- | --- | --- | --- | --- | --- | --- | --- | --- | --- | --- | --- | --- | --- | --- |
| COR-L23 | 0.195 | 0.204 | 0.204 | 0.19 | 0.202 | 0.838 | 0.779 | 0.832 | 0.731 | 0.944 | 0.304 | 0.316 | 0.275 | 0.382 | 0.31 | 0.899 | 0.944 | 1.01 | 0.968 | 1.11 |
| NCI-H2023 | 0.225 | 0.287 | 0.217 | 0.213 | 0.198 | 0.232 | 0.195 | 0.267 | 0.222 | 0.272 | 0.416 | 0.398 | 0.388 | 0.437 | 0.425 | 0.687 | 0.635 | 0.698 | 0.636 | 0.736 |
| RERF-LC-KJ | 0.467 | 0.46 | 0.464 | 0.463 | 0.449 | 0.583 | 0.654 | 0.544 | 0.603 | 0.51 | 0.964 | 1.07 | 1.05 | 1.24 | 1.18 | 0.962 | 0.81 | 0.901 | 0.834 | 0.947 |
| NCI-H1734 | 0.419 | 0.459 | 0.398 | 0.402 | 0.448 | 0.462 | 0.432 | 0.493 | 0.439 | 0.436 | 0.345 | 0.32 | 0.349 | 0.345 | 0.345 | 1.05 | 0.829 | 0.977 | 0.903 | 1.04 |
| NCI-H2087 | 0.772 | 0.798 | 0.64 | 0.611 | 0.685 | 0.982 | 0.848 | 0.992 | 0.856 | 0.769 | 0.235 | 0.24 | 0.228 | 0.273 | 0.198 | 1.06 | 0.905 | 0.96 | 0.699 | 0.968 |
| EKVX | 0.355 | 0.42 | 0.422 | 0.401 | 0.333 | 0.441 | 0.429 | 0.481 | 0.48 | 0.399 | 0.333 | 0.362 | 0.427 | 0.427 | 0.405 | 1.04 | 0.849 | 0.946 | 0.997 | 1.08 |
| NCI-H1915 | 0.48 | 0.533 | 0.538 | 0.489 | 0.443 | 0.966 | 0.994 | 0.999 | 0.888 | 0.88 | 0.532 | 0.506 | 0.521 | 0.512 | 0.527 | 1.03 | 1.12 | 1.09 | 1.13 | 1.13 |
| NCI-H3122 | – | 0.222 | 0.213 | 0.194 | 0.2 | 0.579 | 0.592 | 0.627 | 0.594 | 0.598 | 0.148 | 0.192 | 0.155 | 0.192 | 0.201 | 1.02 | 0.991 | 1.05 | 1.05 | 1.07 |

Source: the supplement of paper PMC10307832
